Structures can show the parent of a compound that is named as a salt. Where two headings read alike, the source gives them in different places.
Experiments:
RelB = molecular target: T1, RelB (Homo sapiens, UniProt Q01201); assay: TransAM NF-κB family DNA binding ELISA, RelB; format: biochemical; conditions: for IC50: binding to NF-κB consensus oligonucleotide, cells without % sign
T1 sequence (Q01201 1-579): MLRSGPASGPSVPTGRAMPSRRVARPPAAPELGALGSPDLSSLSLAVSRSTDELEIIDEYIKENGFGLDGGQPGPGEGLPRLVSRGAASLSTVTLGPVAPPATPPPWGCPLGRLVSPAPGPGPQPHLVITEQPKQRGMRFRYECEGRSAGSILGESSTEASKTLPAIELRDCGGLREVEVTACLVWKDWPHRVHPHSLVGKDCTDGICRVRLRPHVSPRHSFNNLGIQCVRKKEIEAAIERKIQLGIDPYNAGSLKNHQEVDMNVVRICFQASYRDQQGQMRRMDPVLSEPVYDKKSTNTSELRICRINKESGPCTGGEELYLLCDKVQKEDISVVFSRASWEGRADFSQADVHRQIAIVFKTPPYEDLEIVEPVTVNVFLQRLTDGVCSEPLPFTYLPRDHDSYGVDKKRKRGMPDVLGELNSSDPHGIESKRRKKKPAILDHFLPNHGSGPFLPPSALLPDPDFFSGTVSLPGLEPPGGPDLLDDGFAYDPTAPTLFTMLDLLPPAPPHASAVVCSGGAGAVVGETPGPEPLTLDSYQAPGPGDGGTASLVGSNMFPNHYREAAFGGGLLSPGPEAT
Experimental: The binding activity of NF-κB heterodimer or homodimer subunits from activated nuclear extracts or purified recombinant NF-κB proteins exposed to the drug compounds was evaluated using the TransAM NF-κB Family binding ELISA (Active Motif). 3-5 μg of nuclear extracts from TNFα activated Hela or Raji cells (Active Motif) or 20 ng of purified recombinant proteins (p65 and p50 from Active Motif, p52 from Santa Cruz) were incubated for 1 hour at room temperature with 20 μL drug compounds diluted in Complete Lysis buffer without DTT. Treated samples were then transferred to 30 μL Complete Binding Buffer (with DTT) in microplate wells pre-coated with the NF-κB consensus oligonucleotide. […] The plate was incubated for 1 hour at room temperature with gentle shaking and then washed 3 times with 200 μL 1× Wash Buffer. NF-κB p65, p50, p52, RelB, or c-Rel subunits bound to the plate were detected with 100 μL of the primary antibody (diluted 1:1000 in 1× Antibody Buffer) specific for that subunit. The plate was incubated for 1 hour at room temperature and then washed 3 times with 200 μL 1× Wash Buffer. Next, 100 μL of a HRP conjugated goat anti-rabbit antibody (diluted 1:1,000 in 1× Antibody Buffer) was added to each well. The plate was incubated for 1 hour at room temperature and then washed 4 times with 200 μL 1× Wash Buffer. 100 μL of room temperature Developing Solution was added to each well. The reaction was allowed to develop for 2-10 minutes until a medium dark blue color developed (depending on the subunit activity in the lot of extract or lot of recombinant protein used) and then the reaction was stopped with 100 μL Stop Solution yielding a yellow color. Absorbance was recorded using a Becton-Dickinson DTX 880 Multimode Detector at 450 nm with a reference wavelength subtracted at 620 nm. FIGS. 2, 3 and 4 illustrate the effect of Example 10 on inhibiting RelA, RelB and c-Rel binding to NF-κB sites.

[1] = tested on: IL-6 release from RAW264.7 cells; assay: LPS-stimulated IL-6 release from RAW264.7 cells (ELISA); format: cell-based, mouse; conditions: 2 h pretreatment, 1 μg/mL LPS 20-24 h, read-out: RAW 264.7 IL-6 release EC50
Experimental: RAW 264.7 cells were seeded at 4×10^4 cells per well n complete growth medium in 96 well white TC plates with clear bottoms one day prior to the assay. The next day the cells were washed once and 100 μL fresh growth media was added. Cells were pretreated with 0.5 μL from a 6 point 200× dilution series of the test compounds in DMSO for 2 hours. Following pretreatment with the drugs, the inflammatory response was induced by adding 5 μL of a 20 μg/mL solution of LPS (Sigma). The cells were incubated in the presence of the drugs and 1 μg/mL LPS for another 20-24 hours. Typically after treatment the total DMSO was […] of the culture volume and the final concentrations of the compounds were approximately: 40, 20, 10, 1, 0.2 and 0 μM depending on the MW of each compound. Modified dilution series were prepared as needed to get adequate dose response curves without changing the % DMSO. Samples were run in duplicate or triplicate and included DMSO treated control wells with and without LPS stimulation. Drugs with a known activity such as Parthenolide or DHMEQ were run as experimental controls. After 20-24 hours LPS activation, the media supernatant was collected from the cells and replaced with fresh media. The supernatant samples were cleared by centrifugation at 1,000×g for 5 minutes, transferred to fresh storage plates, and stored frozen at −30° C.
After determining the appropriate supernatant dilutions experimentally, mIL-6 levels in the supernatants were quantified using Quantikine™ mouse IL-6 immunoassay (R&D Systems) according to the manufacturer's protocol. […] diluted in Calibrator Diluent were added to 50 μL of Assay Diluent in microplate wells pre-coated with an anti-mouse IL-6 capture antibody. Controls included a calibrated positive IL-6 control sample, non-specific binding (NSB) wells containing Calibrator Diluent but no IL-6, and a recombinant mouse IL-6 standard dilution series (10-1000 pg/mL). The plates were incubated at room temperature for 2 hours with shaking and then washed 5 times with 400 μL 1× Wash Buffer. […] anti-mouse IL-6 antibody was added to each well to detect IL-6 captured on the plate. The plates were incubated at room temperature for 2 hours and then washed 5 times with 400 μL 1× Wash Buffer. Equal volumes of Color Reagents A and B were mixed and 100 μL of this HRP Substrate Solution was added to each well on the plate. The blue color was allowed to develop for 30 minutes and then the reaction was stopped using 100 μL of Stop Solution yielding a yellow color. Absorbance at 450 nm with a reference wavelength subtracted at 595 nm was recorded using a Becton-Dickinson DTX 880 Multimode Detector.
The concentration of mIL-6 in the unknown samples was determined from a curve-fit of the mIL-6 standard absorbance data and multiplying by the dilution factor. The maximum activity achieved in the absence of the inhibitor (DMSO+LPS treated wells) was arbitrarily given a value of 100%; likewise the minimum activity in the absence of the stimulant (no LPS) was assigned a value of 0%. Inhibition of the amount of mIL-6 cytokine released in the drug treated wells was calculated relative to the maximum activation in the DMSO+LPS treated control wells (ie. % inhibition=100−(drug+LPS treated)/(DMSO+LPS treated)). Dose response curves were used to determine the effective concentration to inhibit 50% of the mIL-6 cytokine released (IC50) by means of a SigmaPlot macro which fits a sigmoidal dose-response curve to the (log 10) μM concentration versus % inhibition. […] This technique yields an objective value for the IC50 provided that 50% inhibition was approached at the concentrations tested. FIG. 5 illustrates the effect of the compound of Example 10 on inhibiting IL-6 release.

[2] = Mus musculus, RAW264.7, RAW264.7 cells

inhibition at 5 µM (RelB) [%] | EC50 [1, 2] [µM] | IC50 (RelB) [µM] | EC50 ([1]; RAW264.7 cells, trifluoroacetate) [µM] | Compound
6 | 3.1 |  |  | O=C(NC1=CC(=O)C2OC2C1O)c1ccc(C(F)(F)F)cc1O (racemic) [Example 1, 2-hydroxy-N-(2-hydroxy-5-oxo-7-oxabicyclo[4.1.0]hept-3-en-3-yl)-4-(trifluoromethyl)benzamide]
18 | 1.3 |  |  | O=C(NC1=CC(=O)C2OC2C1O)c1ccc(Cl)cc1O (racemic) [Example 2, (±)-4-chloro-2-hydroxy-N-(2-hydroxy-5-oxo-7-oxabicyclo[4.1.0]hept-3-en-3-yl)benzamide]
10 | 0.48 |  |  | Cc1ccc(C(=O)NC2=CC(=O)C3OC3C2O)c(O)c1 (racemic) [Example 3, (±)-2-hydroxy-N-(2-hydroxy-5-oxo-7-oxabicyclo[4.1.0]hept-3-en-3-yl)-4-methylbenzamide]
9 | 0.76 |  |  | Cc1cccc(C(=O)NC2=CC(=O)C3OC3C2O)c1O (racemic) [Example 4, (±)-2-hydroxy-N-(2-hydroxy-5-oxo-7-oxabicyclo[4.1.0]hept-3-en-3-yl)-3-methylbenzamide]
17 | 0.42 |  |  | COc1ccc(C(=O)NC2=CC(=O)C3OC3C2O)c(O)c1 (racemic) [Example 5, (±)-2-hydroxy-N-(2-hydroxy-5-oxo-7-oxabicyclo[4.1.0]hept-3-en-3-yl)-4-methoxybenzamide]
13 | 2.5 |  |  | O=C(NC1=CC(=O)C2OC2C1O)c1cccc(Cl)c1O (racemic) [Example 6, (±)-3-chloro-2-hydroxy-N-(2-hydroxy-5-oxo-7-oxabicyclo[4.1.0]hept-3-en-3-yl)benzamide]
6 | 1.4 |  |  | O=C(NC1=CC(=O)C2OC2C1O)c1cc2ccccc2cc1O (racemic) [Example 7, (±)-3-hydroxy-N-(2-hydroxy-5-oxo-7-oxabicyclo[4.1.0]hept-3-en-3-yl)-2-naphthamide]
15 | 0.3 |  |  | O=C(NC1=CC(=O)C2OC2C1O)c1ccc2ccccc2c1O (racemic) [Example 8, (±)-1-hydroxy-N-(2-hydroxy-5-oxo-7-oxabicyclo[4.1.0]hept-3-en-3-yl)-2-naphthamide]
32 | 6.5 |  |  | O=C(NC1=CC(=O)C2OC2C1O)c1cc(Br)ccc1O (racemic) [Example 9, (±)-5-bromo-2-hydroxy-N-(2-hydroxy-5-oxo-7-oxabicyclo[4.1.0]hept-3-en-3-yl)benzamide]
 | 0.44 | 23 |  | CN(C)c1ccc(C(=O)NC2=CC(=O)C3OC3C2O)c(O)c1 (racemic) [Example 10, (±)-4-(dimethylamino)-2-hydroxy-N-(2-hydroxy-5-oxo-7-oxabicyclo[4.1.0]hept-3-en-3-yl)benzamide]
 | 0.85 | 10 |  | COc1ccc2cc(O)c(C(=O)NC3=CC(=O)C4OC4C3O)cc2c1 (racemic) [Example 11, (±)-3-hydroxy-N-(2-hydroxy-5-oxo-7-oxabicyclo[4.1.0]hept-3-en-3-yl)-7-methoxy-2-naphthamide]
 | 0.22 | 3.9 |  | O=C(NC1=CC(=O)C2OC2C1O)c1cc2cc(Br)ccc2cc1O (racemic) [Example 15, (±)-7-bromo-3-hydroxy-N-(2-hydroxy-5-oxo-7-oxabicyclo[4.1.0]hept-3-en-3-yl)-2-naphthamide]
 | 0.27 | 2.1 |  | COc1c(C(=O)NC2=CC(=O)C3OC3C2O)ccc(F)c1F (racemic) [Example 16, (±)-3,4-difluoro-N-(2-hydroxy-5-oxo-7-oxabicyclo[4.1.0]hept-3-en-3-yl)-2-methoxybenzamide]
 | 0.48 | 82 |  | Cc1ccc(C(C)C)c(C(=O)NC2=CC(=O)C3OC3C2O)c1O (racemic) [Example 17, (±)-2-hydroxy-N-(2-hydroxy-5-oxo-7-oxabicyclo[4.1.0]hept-3-en-3-yl)-6-isopropyl-3-methylbenzamide]
 |  | 3.3 | 0.74 | CN(C)c1ccc(C(=O)NC2=CC(=O)C3OC3C2O)c(O)c1 (racemic) [Example 19, (±)-4-(dimethylamino)-2-hydroxy-N-(2-hydroxy-5-oxo-7-oxabicyclo[4.1.0]hept-3-en-3-yl)benzamide trifluoroacetate]
 | 0.24 | 1 |  | COc1cc(N(C)C)ccc1C(=O)NC1=CC(=O)C2OC2C1O (racemic) [Example 20, (±)-4-(dimethylamino)-N-(2-hydroxy-5-oxo-7-oxabicyclo[4.1.0]hept-3-en-3-yl)-2-methoxybenzamide]

— US20120046357A1, “Benzamide and Napthamide Derivatives Inhibiting Nuclear Factor-Kappa (B) - (NK-kB)” (Profectus Biosciences, Inc., priority 2009, published 2012)
